Target: CDK2/Cyclin E1 (Homo sapiens (Human), UniProt P24941)
Test: CDK2/Cyclin E1 HTRF enzyme activity assay
Assay type: biochemical
Details: 1 mM ATP; CDK2/Cyclin E1 0.25 nM; 60 minutes at room temperature
Procedure: Example A. CDK2/Cyclin E1 HTRF Enzyme Activity Assay
CDK2/Cyclin E1 enzyme activity assays utilize full-length human CDK2 co-expressed as N-terminal GST-tagged protein with FLAG-Cyclin E1 in a baculovirus expression system (Carna Product Number 04-165). Assays were conducted in white 384-well polystyrene plates in a final reaction volume of 8 μL. CDK2/Cyclin E1 (0.25 nM) was incubated with the compounds of the Examples (40 nL serially diluted in DMSO) in the presence of ATP (50 μM or 1 mM) and 50 nM ULight™-labeled eIF4E-binding protein 1 (THR37/46) peptide (PerkinElmer) in assay buffer (containing 50 mM HEPES pH 7.5, 1 mM EGTA, 10 mM MgCl2, 2 mM DTT, 0.05 mg/mL BSA, and 0.01% Tween 20) for 60 minutes at room temperature. The reactions were stopped by the addition of EDTA and Europium-labeled anti-phospho-4E-BP1 antibody (PerkinElmer), for a final concentration of 15 mM and 1.5 nM, respectively. HTRF signals were read after 1 hour at room temperature on a PHERAstar FS plate reader (BMG Labtech). Data was analyzed with IDBS XLFit and GraphPad Prism 5.0 software using a three or four parameter dose response curve to determine IC50 for each compound.

SMILES | IC50 [nM]
C[C@@H]1CN(S(C)(=O)=O)CC[C@@H]1Nc1nc2ccc(-c3cn[nH]c3)c(OCC(F)F)n2n1 [Example 72, 5-(2,2-Difluoroethoxy)-N-((3R,4S)-3-methyl-1-(methylsulfonyl)piperidin-4-yl)-6-(1H-pyrazol-4-yl)-[1,2,4]triazolo[1,5-a]pyridin-2-amine] | ≤ 20
CC(C)COc1c(-c2ccnc(N)c2)ccn2nc(NC3CCN(S(C)(=O)=O)CC3)nc12 [Example 16, 7-(2-aminopyridin-4-yl)-8-isobutoxy-N-(1-(methylsulfonyl)piperidin-4-yl)-[1,2,4]triazolo[1,5-a]pyridin-2-amine] | ≤ 20
CS(=O)(=O)N1CCC(Nc2nc3cnc(-c4cn[nH]c4)c(N4CCCC(C(F)(F)F)C4)n3n2)CC1 (stereo not shown) [Example 136, N-(1-(Methylsulfonyl)piperidin-4-yl)-6-(1H-pyrazol-4-yl)-5-(3-(trifluoromethyl)piperidin-1-yl)-[1,2,4]triazolo[1,5-a]pyrazin-2-amine] | ≤ 20
CS(=O)(=O)N1CCC(Nc2nc3c(OC4CCOCC4)c(-c4cn[nH]c4)ccn3n2)CC1 [Example 5, N-(1-(methylsulfonyl)piperidin-4-yl)-7-(1H-pyrazol-4-yl)-8-((tetrahydro-2H-pyran-4-yl)oxy)-[1,2,4]triazolo[1,5-a]pyridin-2-amine] | ≤ 20
C[C@@H]1CN(S(C)(=O)=O)CC[C@@H]1Nc1nc2cnc(-c3cn[nH]c3)c(OCC3CC3)n2n1 [Example 115, 5-(Cyclopropylmethoxy)-N-((3R,4S)-3-methyl-1-(methylsulfonyl)piperidin-4-yl)-6-(1H-pyrazol-4-yl)-[1,2,4]triazolo[1,5-a]pyrazin-2-amine] | ≤ 20
CCOc1c(-c2cn[nH]c2)ccn2nc(NC3CCN(S(C)(=O)=O)CC3)nc12 [Example 2, 8-ethoxy-N-(1-(methylsulfonyl)piperidin-4-yl)-7-(1H-pyrazol-4-yl)-[1.2.4]triazolo[1,5-a]pyridin-2-amine] | ≤ 20
CCOc1c(-c2cn[nH]c2)ccn2nc(N[C@H]3CCN(S(=O)(=O)C4CC4)C[C@H]3C)nc12 [Example 13, N-((3R,4S)-1-(cyclopropylsulfonyl)-3-methylpiperidin-4-yl)-8-ethoxy-7-(1H-pyrazol-4-yl)-[1,2,4]triazolo[1,5-a]pyridin-2-amine] | ≤ 20
CCS(=O)(=O)N1CC[C@H](Nc2nc3cnc(-c4cn[nH]c4)c(OC(C)C)n3n2)[C@H](C)C1 [Example 88, N-((3R,4S)-1-(Ethylsulfonyl)-3-methylpiperidin-4-yl)-5-isopropoxy-6-(1H-pyrazol-4-yl)-[1,2,4]triazolo[1,5-a]pyrazin-2-amine] | ≤ 20
CC(C)Sc1c(-c2cn[nH]c2)ncc2nc(NC3CCN(S(C)(=O)=O)CC3)nn12 [Example 124, 5-(Isopropylthio)-N-(1-(methylsulfonyl)piperidin-4-yl)-6-(1H-pyrazol-4-yl)-[1,2,4]triazolo[1,5-a]pyrazin-2-amine] | ≤ 20
CS(=O)(=O)N1CCC(Nc2nc3c(Nc4ccccc4)c(-c4cn[nH]c4)ccn3n2)CC1 [Example 24, N^2-(1-(methylsulfonyl)piperidin-4-yl)-N^8-phenyl-7-(1H-pyrazol-4-yl)-[1,2,4]triazolo[1,5-a]pyridine-2,8-diamine] | ≤ 20
CC(C)Oc1c(-c2cn[nH]c2)ncn2nc(N[C@H]3CCN(S(=O)(=O)C4CC4)C[C@H]3C)nc12 [Example 53, N-((3R,4S)-1-(Cyclopropylsulfonyl)-3-methylpiperidin-4-yl)-8-isopropoxy-7-(1H-pyrazol-4-yl)-[1,2,4]triazolo[1,5-c]pyrimidin-2-amine] | ≤ 20
C[C@@H]1CN(S(C)(=O)=O)CC[C@@H]1Nc1nc2cnc(-c3cn[nH]c3)c(OC3CCOC(C(F)(F)F)C3)n2n1 (stereo partly drawn) [Example 113, N-((3R,4S)-3-Methyl-1-(methylsulfonyl)piperidin-4-yl)-6-(1H-pyrazol-4-yl)-5-((2-(trifluoromethyl)tetrahydro-2H-pyran-4-yl)oxy)-[1,2,4]triazolo[1,5-a]pyrazin-2-amine] | ≤ 20
CC(C)Oc1c(-c2cn[nH]c2)ncn2nc(N[C@H]3CCN(S(=O)(=O)CCCN(C)C(C)C)C[C@H]3C)nc12 [Example 57, 8-Isopropoxy-N-((3R,4S)-1-((3-(isopropyl(methyl)amino)propyl)sulfonyl)-3-methylpiperidin-4-yl)-7-(1H-pyrazol-4-yl)-[1,2,4]triazolo[1,5-c]pyrimidin-2-amine] | ≤ 20
CS(=O)(=O)N1CCC(Nc2nc3c(N4CCC(F)CC4)c(-c4cn[nH]c4)ccn3n2)CC1 [Example 23, 8-(4-fluoropiperidin-1-yl)-N-(1-(methylsulfonyl)piperidin-4-yl)-7-(1H-pyrazol-4-yl)-[1,2,4]triazolo[1,5-a]pyridin-2-amine] | ≤ 20
CC(C)Oc1c(-c2cn[nH]c2)ncn2nc(N[C@H]3CCN(S(=O)(=O)CCCN4CCCCC4)C[C@H]3C)nc12 [Example 58, 8-Isopropoxy-N-((3R,4S)-3-methyl-1-((3-(piperidin-1-yl)propyl)sulfonyl)piperidin-4-yl)-7-(1H-pyrazol-4-yl)-[1,2,4]triazolo[1,5-c]pyrimidin-2-amine] | ≤ 20
CCCOc1c(-c2cn[nH]c2)ncc2nc(NC3CCN(S(C)(=O)=O)CC3)nn12 [Example 105, N-(1-(Methylsulfonyl)piperidin-4-yl)-5-propoxy-6-(1H-pyrazol-4-yl)-[1,2,4]triazolo[1,5-a]pyrazin-2-amine] | ≤ 20
[2H]C(C)(C)Oc1c(-c2cn[nH]c2)ncc2nc(N[C@H]3CCN(S(C)(=O)=O)C[C@H]3C)nn12 [Example 137, N-((3R,4S)-3-Methyl-1-(methylsulfonyl)piperidin-4-yl)-5-((propan-2-yl-2-d)oxy)-6-(1H-pyrazol-4-yl)-[1,2,4]triazolo[1,5-a]pyrazin-2-amine] | ≤ 20
C[C@@H]1CN(S(C)(=O)=O)CC[C@@H]1Nc1nc2cnc(-c3cn[nH]c3)c(OC3CCOCC3)n2n1 [Example 90] | ≤ 20
CC(C)Oc1c(-c2cn[nH]c2)ncc2nc(N[C@H]3CCN(S(C)(=O)=O)C[C@H]3C)nn12 [Example 87, 5-Isopropoxy-N-((3R,4S)-3-methyl-1-(methylsulfonyl)piperidin-4-yl)-6-(1H-pyrazol-4-yl)-[1,2,4]triazolo[1,5-a]pyrazin-2-amine] | ≤ 20
CC(C)Oc1c(-c2cn[nH]c2)ncc2nc(N[C@H]3CCN(S(=O)(=O)C4CC4)C[C@H]3C)nn12 [Example 89, N-((3R,4S)-1-(Cyclopropylsulfonyl)-3-methylpiperidin-4-yl)-5-isopropoxy-6-(1H-pyrazol-4-yl)-[1,2,4]triazolo[1,5-a]pyrazin-2-amine] | ≤ 20
CC(C)COc1c(-c2cn[nH]c2)ncn2nc(NC3CCN(S(C)(=O)=O)CC3)nc12 [Example 44, 8-Isobutoxy-N-(1-(methylsulfonyl)piperidin-4-yl)-7-(1H-pyrazol-4-yl)-[1,2,4]triazolo[1,5-c]pyrimidin-2-amine] | ≤ 20
CC(C)CCOc1c(-c2cn[nH]c2)ncc2nc(NC3CCN(S(C)(=O)=O)CC3)nn12 [Example 121, 5-(Isopentyloxy)-N-(1-(methylsulfonyl)piperidin-4-yl)-6-(1H-pyrazol-4-yl)-[1,2,4]triazolo[1,5-a]pyrazin-2-amine] | ≤ 20

Reference: US11851426B2, “Bicyclic amines as CDK2 inhibitors” (Incyte Corporation, priority 2019, dated 2023)
